{"source": "patent US5166398A", "about": "“4-oxy-substituted phenoxyalkyl carboxylic acid, ester, and alcohol derivatives as antihyper-cholesterolemic and antiatherosclerotic agents” (Warner-Lambert Co., priority 1991, dated 1992)", "key": {"[1]": {"test": "elevation of HDL at 50 mg/kg relative to gemfibrozil 50 mg/kg (procedure of U.S. Pat. No. 4,413,011)", "type": "in vivo", "conditions": "ratio of HDL elevation, test drug 50 mg/kg vs gemfibrozil 50 mg/kg; 1 = as effective as gemfibrozil", "method": "Additionally, the elevation of HDL is reported in the table as a ratio of the elevation of HDL effected by a dose of 50 mg/kg of the test drug divided by the elevation of HDL effected by a 50 mg/kg dose of gemfibrozil which is used as a control in each experiment. [formula] Thus, a figure of 1 means that the test drug was as effective as gemfibrozil in elevating HDL. […] The test procedure is described in U.S. Pat. No. 4,413,011 which is herein incorporated by reference."}, "[2]": {"target": "T1, acyl-CoA:cholesterol acyltransferase (ACAT) (Oryctolagus cuniculus, UniProt G1SFD9)", "T1 construct": "rabbit intestinal microsomal fraction; from tissue; host or cells: rabbit intestine, microsomal fraction", "T1 sequence (G1SFD9 1-524)": "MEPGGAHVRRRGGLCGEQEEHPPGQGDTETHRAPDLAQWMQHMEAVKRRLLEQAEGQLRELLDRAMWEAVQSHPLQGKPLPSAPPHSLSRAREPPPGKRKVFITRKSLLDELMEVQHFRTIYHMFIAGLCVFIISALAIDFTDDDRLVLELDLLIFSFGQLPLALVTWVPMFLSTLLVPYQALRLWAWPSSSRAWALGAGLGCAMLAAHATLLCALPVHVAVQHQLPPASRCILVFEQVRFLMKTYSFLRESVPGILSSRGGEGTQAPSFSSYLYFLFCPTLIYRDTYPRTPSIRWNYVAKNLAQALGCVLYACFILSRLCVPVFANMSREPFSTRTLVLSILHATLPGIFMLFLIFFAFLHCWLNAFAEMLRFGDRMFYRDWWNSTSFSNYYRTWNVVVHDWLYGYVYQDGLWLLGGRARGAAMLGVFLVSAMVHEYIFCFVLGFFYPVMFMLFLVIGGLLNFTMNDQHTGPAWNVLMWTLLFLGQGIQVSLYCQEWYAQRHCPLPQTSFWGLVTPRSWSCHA", "test": "inhibition of cholesterol esterification by ACAT, rabbit intestinal microsomal fraction (cholesteryl oleate formation from endogenous cholesterol and exogenous 14C-oleoyl-CoA)", "type": "biochemical", "conditions": "rabbit intestinal microsomes; in vitro; read-out: IC50, concentration of test compound required to inhibit cholesteryl oleate formation to 50% of control", "method": "The compounds of the present invention were tested for their ability to inhibit the esterification of cholesterol by the enzyme acyl-CoA:cholesterol acyltransferase (ACAT). The data in the table below is expressed as IC50 values, i.e., the concentration of test compound required to inhibit cholesteryl oleate formation to 50% of control.\nThe in vitro test employed is more fully described in Field, F. J. and Salome, R. G., Biochemica et Biophysica Acta, Vol. 712, pages 557-570 (1982). The assay evaluates the ability of a test compound to inhibit the esterification of cholesterol using endogenous cholesterol of a rabbit intestinal microsomal fraction and exogenous ^14 C-oleoyl-CoA as reactants."}, "coronary heart disease": {"test_system": "coronary heart disease", "conditions": "cited from earlier work"}}}
{"smiles": "CCCCOc1cc(C)c(OCCCC(C)(C)C(=O)OC)cc1C", "note": "[Example 2, 5-(4-Butoxy-2,5-dimethylphenoxy)-2,2-dimethylpentanoic acid, methyl ester]", "values": [{"measurement": "Δ HDL Test Compound / Δ HDL Gemfibrozil", "setting": "[1]", "result": 0.85}]}
{"smiles": "CCOc1cc(C)c(OCCCC(C)(C)C(=O)OC)cc1C", "note": "[Example 3, 5-(4-Ethoxy-2,5 dimethylphenoxy)-2,2 dimethylpentanoic acid, methyl ester]", "values": [{"measurement": "Δ HDL Test Compound / Δ HDL Gemfibrozil", "setting": "[1]", "result": 1.2}]}
{"smiles": "COc1cc(C)c(OCCCC(C)(C)C(=O)O)cc1C", "note": "[Example 4, 5-(4-Methoxy-2,5-dimethylphenoxy)-2,2-dimethylpentanoic acid]", "values": [{"measurement": "Δ HDL Test Compound / Δ HDL Gemfibrozil", "setting": "[1]", "result": 1.2}]}
{"smiles": "CCCCOc1cc(C)c(OCCCC(C)(C)C(=O)O)cc1C", "note": "[Example 5, 5-(4-Butoxy-2,5-dimethylphenoxy)-2,2-dimethylpentanoic acid]", "values": [{"measurement": "Δ HDL Test Compound / Δ HDL Gemfibrozil", "setting": "[1]", "result": 0.9}]}
{"smiles": "CCOc1cc(C)c(OCCCC(C)(C)C(=O)O)cc1C", "note": "[Example 6, 5-(4-Ethoxy-2,5-dimethylphenoxy)-2,2-dimethylpentanoic acid]", "values": [{"measurement": "Δ HDL Test Compound / Δ HDL Gemfibrozil", "setting": "[1]", "result": 1.4}]}
{"smiles": "COC(=O)C(C)(C)CCCOc1c(C)cc(OC(=O)C(C)(C)C)c(C)c1C", "note": "[Example 7, 5-[4-(2,2-Dimethyl-1-oxopropoxy)-2,3,6-trimethylphenoxy]-2,2 dimethylpentanoic acid, methyl ester]", "values": [{"measurement": "Δ HDL Test Compound / Δ HDL Gemfibrozil", "setting": "[1]", "result": 1.1}]}
{"smiles": "COC(=O)C(C)(C)CCCOc1cc(C)c(OCc2ccccc2)c(C)c1C", "note": "[Example 8, 2,2-Dimethyl-5-[2,3,5-trimethyl-4-(phenylmethoxy)phenoxy]pentanoic acid, methyl ester]", "values": [{"measurement": "Δ HDL Test Compound / Δ HDL Gemfibrozil", "setting": "[1]", "result": 1.0}]}
{"smiles": "Cc1cc(OCCCC(C)(C)C(=O)O)c(C)c(C)c1OCc1ccccc1", "note": "[Example 9, 2,2-Dimethyl-5-[2,3,5-trimethyl-4-(phenylmethoxy)-phenoxy]pentanoic acid]", "values": [{"measurement": "Δ HDL Test Compound / Δ HDL Gemfibrozil", "setting": "[1]", "result": 0.9}]}
{"smiles": "Cc1cc(OCCCC(C)(C)CO)c(C)c(C)c1OCc1ccccc1", "note": "[Example 10]", "values": [{"measurement": "Δ HDL Test Compound / Δ HDL Gemfibrozil", "setting": "[1]", "result": 0.9}]}
{"smiles": "COC(=O)C(C)(C)CCCOc1cc(C)c(OCc2ccccc2)c(C)c1", "note": "[Example 11, 5-[3,5-Dimethyl-4-(phenylmethoxy)phenoxy]-2,2-dimethylpentanoic acid, methyl ester]", "values": [{"measurement": "Δ HDL Test Compound / Δ HDL Gemfibrozil", "setting": "[1]", "result": 1.2}]}
{"smiles": "Cc1cc(OCc2ccccc2)c(C)cc1OCCCC(C)(C)C(=O)O", "note": "[Example 14, 5-[2,5-Dimethyl-4-(phenylmethoxy)phenoxy]-2,2-dimethylpentanoic acid]", "values": [{"measurement": "Δ HDL Test Compound / Δ HDL Gemfibrozil", "setting": "[1]", "result": 1.0}]}
{"smiles": "COC(=O)C(C)(C)CCCOc1cc(C)c(OC(=O)Nc2c(C(C)C)cccc2C(C)C)cc1C", "note": "[Example 15, 5-[4-[[[[2,6-Bis(1-methylethyl)phenyl]amino]carbonyl]oxy]-2,5-dimethylphenoxy]-2,2-dimethylpentanoic acid, methyl ester]", "values": [{"measurement": "IC50", "setting": "[2]", "result": "> 5", "unit": "µM"}]}
{"smiles": "Cc1ccc(C)c(OCCCC(C)(C)C(=O)O)c1", "note": "[gemfibrozil]", "values": [{"measurement": "effect on HDL (in words)", "setting": "coronary heart disease; human, in vivo", "result": "elevates HDL"}, {"measurement": "effect on LDL (in words)", "setting": "coronary heart disease; human, in vivo", "result": "lowers LDL"}, {"measurement": "reduction of the rate of heart attack and sudden cardiac death", "setting": "coronary heart disease; patients with elevated cholesterol levels, five-year trial", "result": 34, "unit": "%"}]}
